# Assay results as given in patent publication US20120077836A1, “METHODS OF ADMINISTERING (4AR,10AR)-1-N-PROPYL-1,2,3,4,4A,5,10,10A-OCTAHYDROBENZO [G] QUINOLINE-6,7-DIOL AND RELATED COMPOUNDS ACROSS THE ORAL MUCOSA, THE NASAL MUCOSA OR THE SKIN AND PHARMACEUTICAL COMPOSITIONS THEREOF” (priority 2009, published 2012).
# Where a name gives a salt, the structure may show the parent alone. Read-outs that look alike come from different tables or passages of the source.
# Test: Intravenous and buccal pharmacokinetic study in the minipig
# Type: in vivo
# Conditions: male, Göttingen, in vivo
# Experimental: The test article was compound 10. The vehicles for the test article were Sterile saline (0.9% NaCl) (intravenous administration) supplied by Baxter, Norfolk or Ascorbic acid reconstituted in Water for Injection (buccal administration) supplied by VWR International, Leicestershire. Formulations were prepared on the day of dosing.
# Three male minipigs of the Göttingen ApS strain were supplied by Ellegaard Göttingen, Dalmose, Denmark. At initiation of dosing, animals were approximately 15 to 17 weeks old. Each animal was dosed once on three separate occasions according to the following study design:
# Animals were deprived of food overnight and anaesthetised with isoflurane in oxygen (administered by facemask), prior to each dosing occasion.
# Intravenous administrations were performed by slow manual injection via a temporary catheter placed in the ear vein whilst under anaesthesia, animals were allowed to recover from the anaesthesia immediately after dosing. Whilst anaesthetised, a catheter was inserted into the jugular vein and secured in place for the purpose of blood collection. The catheter was filled with heparin (250 iu/mL in 0.9% sodium chloride). The exterior portion of the catheter was routed from the ventral neck to the dorsum of the minipig and protected by bandaging. The distal end of the catheter was capped and placed in a re-sealable pouch within the bandage. The jugular catheter was retained in place and flushed with heparinised saline every 24 hours.
# Buccal administrations were performed by applying the test formulation to the buccal membrane for 5 minutes while the animal was anaesthetised. Any residual formulation remaining in the mouth after the 5 minute application was […]. Animals were allowed to recover from the anaesthesia immediately after dosing.
# , all animals on Day 3 following buccal administration of a low dose and all animals on Day 5 following buccal administration of a high dose for pharmacokinetic analysis. The samples (1.0 mL) were collected from the jugular vein (via catheter) into tubes containing EDTA anticoagulant. Prior to addition of the blood sample, 100 microL of a stabiliser (2% beta-mercaptoethanol containing 20 mg/mL ascorbic acid) was added to each pot. The stabiliser was prepared fresh on each day of sample collection. Samples were collected as follows: • Day 1: 5, 10, 15, 30 and 45 minutes and 1, 2, 4, 6, 8, 12 and 16 hours post-dose • Day 3: pre-dose and at 5, 10, 15, 30 and 45 minutes and 1, 2, 4, 6, 8, 12, 16 and 24 hours post-dose • Day 5: pre-dose and at 5, 10, 15, 30 and 45 minutes and 1, 2, 4, 6, 8, 12, 16 and 24 hours post-dose
# The times of the blood sampling were generally adhered to. The greatest deviation from the scheduled timepoints was one minute late at the 5 minute timepoint on Day 3. The blood samples were centrifuged within one hour of sample collection and the resultant plasma was frozen prior to analysis.
# The plasma concentrations of compound 10 were determined after solid phase extraction of the plasma samples followed by high performance liquid chromatography with tandem mass spectrometric detection (LC-MS/MS) using a sample volume of about 100 microL.
# Internal standard solution, containing the internal standard of compound 10 was added to thawed plasma samples (100 microL aliquot). The SPE plate (Oasis HLB, 10 mg) was conditioned with methanol (500 microL) followed by water (500 microL). The sample (approx. 500 microL aliquot) was transferred to the pre-conditioned SPE plate. The sample was then passed through the cartridge, which was then washed with water:methanol (90:10 v/v, 0.5 mL). The sample was then eluted into a fresh 96 well polypropylene collection plate with 20 mM ammonium formate (aq): acetonitrile: formic acid (50:50:2 v/v/v, 250 microL). The organic component of the eluted samples was then evaporated under a gentle stream of nitrogen until approximately 50% of the original volume was remaining. […]
compound,measurement,setting,value
"CCCN1CCC[C@@H]2Cc3c(ccc(O)c3O)C[C@H]21 [compound 10, (4aR,10aR)-1-n-Propyl-1,2,3,4,4a,5,10,10a-octahydro-benzo[g]quinoline-6,7-diol hydrobromide]",concentration at 0.17 h,"0.01 mg/kg, buccal 0.010 mg/kg, mean, read-out: Plasma concentration Day 3 Hour 0.17, Mean",0.148 ng/mL
same,concentration at 0.25 h,"0.01 mg/kg, buccal 0.010 mg/kg, mean, read-out: Plasma concentration Day 3 Hour 0.25, Mean",0.314 ng/mL
same,concentration at 0.5 h,"0.01 mg/kg, buccal 0.010 mg/kg, mean, read-out: Plasma concentration Day 3 Hour 0.5, Mean",0.752 ng/mL
same,concentration at 0.75 h,"0.01 mg/kg, buccal 0.010 mg/kg, mean, read-out: Plasma concentration Day 3 Hour 0.75, Mean",1.04 ng/mL
same,concentration at 1 h,"0.01 mg/kg, buccal 0.010 mg/kg, mean, read-out: Plasma concentration Day 3 Hour 1, Mean",0.869 ng/mL
same,concentration at 2 h,"0.01 mg/kg, buccal 0.010 mg/kg, mean, read-out: Plasma concentration Day 3 Hour 2, Mean",0.487 ng/mL
same,bioavailability,"0.01 mg/kg, buccal 0.010 mg/kg, range, read-out: bioavailability",30 to 42%
same,bioavailability,"0.01 mg/kg, buccal 0.010 mg/kg, read-out: bioavailability, mean values",31 to 35%
same,half-life,"0.01 mg/kg, buccal 0.010 mg/kg, read-out: mean apparent terminal half-life (converted)",5.1 h
same,Tmax,"0.04 mg/kg, buccal 0.040 mg/kg, animal 1",1 h
same,concentration at 0.5 h,"0.04 mg/kg, buccal 0.040 mg/kg, individual animals 1-3, read-out: Plasma concentration Day 5 Hour 0.5",7.88 ng/mL
same,concentration at 0.75 h,"0.04 mg/kg, buccal 0.040 mg/kg, individual animals 1-3, read-out: Plasma concentration Day 5 Hour 0.75",15.9 ng/mL
same,concentration at 1 h,"0.04 mg/kg, buccal 0.040 mg/kg, individual animals 1-3, read-out: Plasma concentration Day 5 Hour 1",11.9 ng/mL
same,concentration at 4 h,"0.04 mg/kg, buccal 0.040 mg/kg, mean, read-out: Plasma concentration Day 1 Hour 4, Mean",1.93 ng/mL
same,concentration at 6 h,"0.04 mg/kg, buccal 0.040 mg/kg, mean, read-out: Plasma concentration Day 1 Hour 6, Mean",0.93 ng/mL
same,concentration at 8 h,"0.04 mg/kg, buccal 0.040 mg/kg, mean, read-out: Plasma concentration Day 1 Hour 8, Mean",0.522 ng/mL
same,concentration at 12 h,"0.04 mg/kg, buccal 0.040 mg/kg, mean, read-out: Plasma concentration Day 1 Hour 12, Mean",0.604 ng/mL
same,concentration at 16 h,"0.04 mg/kg, buccal 0.040 mg/kg, mean, read-out: Plasma concentration Day 1 Hour 16, Mean",0.292 ng/mL
same,concentration at 24 h,"0.04 mg/kg, buccal 0.040 mg/kg, mean, read-out: Plasma concentration Day 1 Hour 24, Mean",0.119 ng/mL
same,concentration at 0.08 h,"0.04 mg/kg, buccal 0.040 mg/kg, mean, read-out: Plasma concentration Day 5 Hour 0.08, Mean",1.29 ng/mL
same,concentration at 0.17 h,"0.04 mg/kg, buccal 0.040 mg/kg, mean, read-out: Plasma concentration Day 5 Hour 0.17, Mean",3.27 ng/mL
same,concentration at 0.25 h,"0.04 mg/kg, buccal 0.040 mg/kg, mean, read-out: Plasma concentration Day 5 Hour 0.25, Mean",5.45 ng/mL
same,concentration at 0.5 h,"0.04 mg/kg, buccal 0.040 mg/kg, mean, read-out: Plasma concentration Day 5 Hour 0.5, Mean",7.14 ng/mL
same,concentration at 0.75 h,"0.04 mg/kg, buccal 0.040 mg/kg, mean, read-out: Plasma concentration Day 5 Hour 0.75, Mean",12.4 ng/mL
same,concentration at 1 h,"0.04 mg/kg, buccal 0.040 mg/kg, mean, read-out: Plasma concentration Day 5 Hour 1, Mean",10.8 ng/mL
same,concentration at 2 h,"0.04 mg/kg, buccal 0.040 mg/kg, mean, read-out: Plasma concentration Day 5 Hour 2, Mean",6.3 ng/mL
same,bioavailability,"0.04 mg/kg, buccal 0.040 mg/kg, range, read-out: bioavailability",73 to 136%
same,bioavailability,"0.04 mg/kg, buccal 0.040 mg/kg, read-out: bioavailability, mean values",105 to 122%
same,half-life,"0.04 mg/kg, buccal 0.040 mg/kg, read-out: mean apparent terminal half-life (converted)",5.6 h
same,half-life,"IV bolus 0.0025 mg/kg, range of animals, read-out: apparent terminal elimination half-life (t½)",3.4 to 4.3 h
same,half-life,"IV bolus 0.025 mg/kg (as printed in conclusion), read-out: individual apparent terminal elimination half-life",3.4 to 4.3 h
same,half-life,"buccal, range in individual animals, read-out: apparent terminal elimination half-life",3.1 to 5.6 h
same,concentration at 0.08 h,"iv, 0.0025 mg/kg, IV 0.0025 mg/kg, individual animals 1-3, read-out: Plasma concentration Day 1 Hour 0.08",1.21 ng/mL
same,concentration at 0.17 h,"iv, 0.0025 mg/kg, IV 0.0025 mg/kg, individual animals 1-3, read-out: Plasma concentration Day 1 Hour 0.17",0.834 ng/mL
same,concentration at 0.25 h,"iv, 0.0025 mg/kg, IV 0.0025 mg/kg, individual animals 1-3, read-out: Plasma concentration Day 1 Hour 0.25",0.74 ng/mL
same,concentration at 0.5 h,"iv, 0.0025 mg/kg, IV 0.0025 mg/kg, individual animals 1-3, read-out: Plasma concentration Day 1 Hour 0.5",0.562 ng/mL
same,concentration at 0.75 h,"iv, 0.0025 mg/kg, IV 0.0025 mg/kg, individual animals 1-3, read-out: Plasma concentration Day 1 Hour 0.75",0.534 ng/mL
same,concentration at 1 h,"iv, 0.0025 mg/kg, IV 0.0025 mg/kg, individual animals 1-3, read-out: Plasma concentration Day 1 Hour 1",0.379 ng/mL
same,concentration at 2 h,"iv, 0.0025 mg/kg, IV 0.0025 mg/kg, individual animals 1-3, read-out: Plasma concentration Day 1 Hour 2",0.198 ng/mL
same,concentration at 4 h,"iv, 0.0025 mg/kg, IV 0.0025 mg/kg, individual animals 1-3, read-out: Plasma concentration Day 1 Hour 4",0.0748 ng/mL
same,concentration at 6 h,"iv, 0.0025 mg/kg, IV 0.0025 mg/kg, individual animals 1-3, read-out: Plasma concentration Day 1 Hour 6",0.0476 ng/mL
same,concentration at 8 h,"iv, 0.0025 mg/kg, IV 0.0025 mg/kg, individual animals 1-3, read-out: Plasma concentration Day 1 Hour 8",0.0245 ng/mL
same,concentration at 12 h,"iv, 0.0025 mg/kg, IV 0.0025 mg/kg, individual animals 1-3, read-out: Plasma concentration Day 1 Hour 12",0.017 ng/mL
same,concentration at 16 h,"iv, 0.0025 mg/kg, IV 0.0025 mg/kg, individual animals 1-3, values below LLOQ 10 pg/mL estimated, read-out: Plasma concentration Day 1 Hour 16",0.00858 ng/mL
same,concentration at 0.08 h,"iv, 0.0025 mg/kg, IV 0.0025 mg/kg, mean, read-out: Plasma concentration Day 1 Hour 0.08, Mean",1.62 ng/mL
same,concentration at 0.17 h,"iv, 0.0025 mg/kg, IV 0.0025 mg/kg, mean, read-out: Plasma concentration Day 1 Hour 0.17, Mean",1.02 ng/mL
same,concentration at 0.25 h,"iv, 0.0025 mg/kg, IV 0.0025 mg/kg, mean, read-out: Plasma concentration Day 1 Hour 0.25, Mean",0.913 ng/mL
same,concentration at 0.5 h,"iv, 0.0025 mg/kg, IV 0.0025 mg/kg, mean, read-out: Plasma concentration Day 1 Hour 0.5, Mean",0.673 ng/mL
same,concentration at 0.75 h,"iv, 0.0025 mg/kg, IV 0.0025 mg/kg, mean, read-out: Plasma concentration Day 1 Hour 0.75, Mean",0.619 ng/mL
same,concentration at 1 h,"iv, 0.0025 mg/kg, IV 0.0025 mg/kg, mean, read-out: Plasma concentration Day 1 Hour 1, Mean",0.421 ng/mL
same,concentration at 2 h,"iv, 0.0025 mg/kg, IV 0.0025 mg/kg, mean, read-out: Plasma concentration Day 1 Hour 2, Mean",0.249 ng/mL
same,concentration at 4 h,"iv, 0.0025 mg/kg, IV 0.0025 mg/kg, mean, read-out: Plasma concentration Day 1 Hour 4, Mean",0.0887 ng/mL
same,concentration at 6 h,"iv, 0.0025 mg/kg, IV 0.0025 mg/kg, mean, read-out: Plasma concentration Day 1 Hour 6, Mean",0.0598 ng/mL
same,concentration at 8 h,"iv, 0.0025 mg/kg, IV 0.0025 mg/kg, mean, read-out: Plasma concentration Day 1 Hour 8, Mean",0.033 ng/mL
same,concentration at 12 h,"iv, 0.0025 mg/kg, IV 0.0025 mg/kg, mean, read-out: Plasma concentration Day 1 Hour 12, Mean",0.0226 ng/mL
same,concentration at 16 h,"iv, 0.0025 mg/kg, IV 0.0025 mg/kg, mean, read-out: Plasma concentration Day 1 Hour 16, Mean",0.00931 ng/mL
